Data: the supplement of paper PMC6470124

What was measured:
[1] = absolute recovery over vacuum-assisted evaporative concentration; higher = better recovery; conditions: enrichment method: VEC
Method in brief: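 After spiking with standards before concentration, after concentration or not at all, at 1000 ng/L for wastewater or 200 ng/L for nanopure and surface water with class- and compound-specific adjustments, samples of 6 mL influent, 15 mL effluent and 60 mL surface or nanopure water were evaporated at 55 °C and 20 mbar to about 0.3 mL. They were brought to 0.4 mL, centrifuged, given internal standards and analysed by LC-HRMS/MS. Absolute recovery, (response ratio pre − unspiked)/(post − unspiked) × 100, used averages of ≥ 2 replicates.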

[2] = absolute recovery over mixed-bed multilayer solid-phase extraction; higher = better recovery; conditions: enrichment method: SPE
Method in brief: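 Wastewater (100–250 mL, pH 6.5, glass-fibre filtered) and unfiltered nanopure water (1000 mL) were extracted on a three-layer mixed-bed cartridge, with standards spiked before extraction, after it, or not at all at 1000 ng/L and 200 ng/L respectively, apart from some classes. Internal standards were then added for liquid chromatography with high-resolution tandem mass spectrometry in both ionisation modes. Absolute recovery compares background-corrected response ratios of pre- and post-spiked samples across at least two replicates.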

[3] = LC retention time (Atlantis T3, 5-95% MeOH gradient, 0.1% formic acid); higher = more retained / less polar
Method in brief: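 Retention times were recorded for reference standards on a polar reversed-phase C18 column. The standards were of purity ≥ 95%, and the Atlantis T3 column (3 × 150 mm, 3 μm) was run at 0.3 mL/min with a gradient from 5 to 95% methanol over 17.5 min, both water and methanol containing 0.1% formic acid. Detection used high-resolution tandem mass spectrometry on a QExactive Plus, with positive and negative electrospray in separate runs, and peaks were integrated in TraceFinder (5 ppm tolerance, at least three points per peak) before being checked by hand.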

Compound	absolute recovery ([1]; wastewater effluent)	absolute recovery ([1]; wastewater influent)	absolute recovery ([2]; nanopure water)	absolute recovery ([2]; surface water)	absolute recovery ([2]; wastewater effluent)	absolute recovery ([2]; wastewater influent)	LC retention time [3]
CC(C)c1nc(CN(C)C(=O)NC(C(=O)NC(Cc2ccccc2)CC(O)C(Cc2ccccc2)NC(=O)OCc2cncs2)C(C)C)cs1 (stereo unspecified) [Ritonavir]	106%	99.5%	85.2%	92.4%	86.9%	87.6%	21 min
CCCCCCCCCC[N+](C)(C)[O-] [NN-Dimethyldicylamin-N-oxid]	103%	110%	85.4%	110%	93.4%	58.3%	16.9 min
CCCC(CCC)(C(=O)[O-])C(=O)O [Dipropylmalonic-acid]	103%	109%	94.4%	88.7%	94.7%	87.9%	18.2 min
COc1nc(NC(C)C)nc(NC(C)C)n1 [Prometon F]	104%	106%	88.1%	95.5%	91.6%	92.7%	15.8 min
O=S(=O)([O-])NC1CCCCC1 [Cyclamat]	104%	–	95.8%	–	29%	–	14.3 min
NS(=O)(=O)Cc1noc2ccccc12 [Zonisamide]	103%	101%	84.8%	88.8%	88.4%	107%	13.1 min
COCCCOc1cc(CC(CC([NH3+])C(O)CC(C(=O)NCC(C)(C)C(N)=O)C(C)C)C(C)C)ccc1OC (stereo unspecified) [Aliskiren]	87.1%	91.1%	67%	82.7%	68.3%	72.9%	16.7 min
COc1c(Cl)ccc(Cl)c1C(=O)[O-] [Dicamba]	104%	106%	95.6%	94%	93.5%	91.2%	19.3 min
CC(C)CC(C[NH3+])CC(=O)[O-] (racemic) [Pregabalin-rac]	108%	101%	16.3%	2%	2.6%	–	10.3 min
COc1cc2[nH+]c(N(C)CCCNC(=O)C3CCCO3)nc(N)c2cc1OC (stereo unspecified) [Alfuzosin]	99.1%	97%	93.2%	96.3%	96%	99.6%	13.2 min
NC1=C(Cl)C(=O)c2ccccc2C1=O [Quinoclamine]	97%	106%	93.9%	96.8%	92.6%	88%	16.8 min
Nc1[nH]c2ccccc2[nH+]1 [2-Aminobenzimidazol]	103%	99.3%	90.5%	90.3%	91.9%	92%	9.5 min
N#Cc1c(Cl)c(Cl)c([O-])c(C(=[NH2+])[O-])c1Cl	109%	105%	101%	99.6%	94.8%	–	16.8 min
CCCCc1c(C)nc(NCC)nc1OS(=O)(=O)N(C)C [Bupirimate]	105%	117%	83.8%	85.1%	93.3%	74.8%	19.3 min
COCCOCCOCCOCCOC [Tetraglyme]	103%	112%	80.5%	83.7%	83.5%	99.6%	13.2 min
COP(=O)(OC)OC=C(Cl)Cl [Dichlorvos]	34.5%	39.6%	63.4%	47.3%	60%	87.4%	16.8 min
CCCC(C)(COC(N)=O)COC(=O)NC(C)C (stereo unspecified) [Carisoprodol]	104%	102%	99.3%	97.9%	93.1%	92.4%	18.1 min
C[NH+]1CCC23c4c5ccc(O)c4OC2C(O)C=CC3C1C5 (stereo unspecified) [Morphin]	104%	99.7%	81.1%	91.3%	87.9%	89.6%	7.4 min
N#Cc1cc(I)c([O-])c(I)c1 [Ioxynil]	106%	111%	103%	102%	99.4%	96.2%	19.3 min
COc1ccc(C2Sc3ccccc3N(CC[NH+](C)C)C(=O)C2OC(C)=O)cc1 (stereo unspecified) [Diltiazem]	90.5%	94.2%	89%	95.6%	91.9%	144%	15.1 min
CCOC(=O)C1=NOC(c2ccccc2)(c2ccccc2)C1 [Isoxadifen-ethyl]	26.4%	–	82.7%	93.3%	103%	62.5%	20.6 min
O=c1c(-c2ccc(O)cc2)coc2cc([O-])cc(O)c12 [Genistein]	93%	89.9%	99.2%	103%	99.5%	93.3%	17.9 min
CC(=O)Nc1nnc(S([NH-])(=O)=O)s1 [Acetazolamide]	106%	107%	90.8%	95.6%	94.2%	96.6%	10.5 min
CSc1nc(NC2CC2)nc(NC(C)(C)C)n1 [Irgarol]	98%	95.5%	101%	98.8%	97%	91.2%	19 min
Nc1ccc(S(=O)(=O)[O-])cc1 [Sulfanilic-acid]	124%	96.5%	10.3%	3.8%	4.2%	6.4%	3.46 min
CC(Oc1ccc(Cl)cc1Cl)C(=O)[O-] (stereo unspecified) [Dichlorprop]	104%	99.8%	97.8%	95.4%	–	87.9%	20.1 min
C[NH2+]CCC(c1ccccc1)c1ccccn1 (stereo unspecified) [N-desmethylpheniramine]	106%	109%	59.5%	65.4%	65.1%	81.3%	10.8 min

Compound	absolute recovery ([1]; wastewater effluent)	absolute recovery ([1]; wastewater influent)	absolute recovery ([2]; nanopure water)	absolute recovery ([2]; surface water)	absolute recovery ([2]; wastewater effluent)	absolute recovery ([2]; wastewater influent)	LC retention time [3]
CS(=O)(=O)c1ccc(C(=O)[C-]2C(=O)CCCC2=O)c([N+](=O)[O-])c1 [Mesotrion]	103%	103%	–	96.5%	94.6%	80.1%	16 min
C[NH+](C)CCC=C1c2ccccc2CCc2ccccc21 [Amitriptyline E]	110%	108%	84.5%	106%	96.3%	58.1%	16.1 min
CC12CCC(=O)C=C1CCC1C2C(=O)CC2(C)C1CCC2(O)C(=O)CO (stereo unspecified) [Cortison]	99.8%	54.6%	74.9%	75.6%	74.8%	95.2%	17.5 min
CCCCCC(C)OC(=O)COc1ccc(Cl)c2cccnc12 (stereo unspecified) [Cloquintocet-mexyl]	111%	103%	56.8%	67.2%	70.9%	–	22.4 min
NC(=O)N1c2ccccc2C2OC2c2ccccc21 (stereo unspecified) [Carbamazepin-10-11-epoxid]	105%	102%	96.6%	97.3%	94.8%	92.2%	15.7 min
CC=CC(=O)N(CC)c1ccccc1C [Crotamiton]	59.5%	70.2%	78.6%	70.5%	75.3%	91.5%	19.3 min
CC(C)Nc1nc(O)nc(NC(C)C)n1 [Propazine-2-hydroxy I]	104%	113%	103%	96.9%	94.2%	88%	12.7 min
Cc1cc(C(C)(C)C)cc(C)c1CC1=[NH+]CCN1 [Xylometazolin]	102%	106%	87.3%	84%	85.4%	97.2%	15.7 min
O=C(NCC(O)CO)c1c(I)c(C(=O)NCC(O)CO)c(I)c(N(CCO)C(=O)CO)c1I (stereo unspecified) [Ioversol]	83.7%	86.5%	55.7%	–	57.2%	36%	7.88 min
COC(=O)c1ccccc1S(=O)(=O)[N-]C(=O)N(C)c1nc(C)nc(OC)n1 [Tribenuron-methyl]	124%	119%	–	24.9%	38%	–	18.1 min
CCOC(=O)C1(c2ccccc2)CC[NH+](C)CC1 [Meperidine]	99.2%	103%	88.6%	87.8%	86.8%	96.6%	12.8 min
CC(=NC#N)N(C)Cc1ccc(Cl)nc1 [Acetamiprid]	102%	90.8%	110%	93.8%	89%	–	14.3 min
COc1ccc2c3c1OC1C(O)CCC4C(C2)[NH+](C)CCC341 (stereo unspecified) [Dihydrocodeine]	108%	100%	98.5%	107%	94.1%	97.7%	9.1 min
CC(=O)OC1C(C)OC(n2cc(F)c(N)nc2=O)C1OC(C)=O (stereo unspecified) [2-3-di-O-acetyl-5-deoxy-5-fluorocytidin]	101%	91.8%	102%	100%	92.7%	84.6%	13.9 min
CC(Cc1ccc(C(C)(C)C)cc1)C[NH+]1CCCCC1 (stereo unspecified) [Fenpropidin]	146%	46.3%	–	107%	94.1%	67.3%	16.4 min
COc1ccc(CN(CC[NH+](C)C)c2ccccn2)cc1 [Pyrilamine]	94%	99.9%	83.7%	87%	87.3%	88.2%	18.4 min
CCC1OC(=O)C(C)C(OC2CC(C)(OC)C(O)C(C)O2)C(C)C(OC2OC(C)CC([NH+](C)C)C2O)C(C)(O)CC(C)C(=O)C(C)C(O)C1(C)O (stereo unspecified) [Erythromycin]	113%	–	50.1%	69.3%	78.3%	83.3%	16.9 min
OC(Cc1ccccc1Cl)(Cn1cncn1)C1(Cl)CC1 (stereo unspecified) [Prothioconazole-desethio]	141%	128%	109%	86.3%	104%	104%	20.6 min
CCc1ccc(C(=O)NN(C(=O)c2cc(C)cc(C)c2)C(C)(C)C)cc1 [Tebufenozid]	102%	98.1%	104%	111%	98.7%	103%	20.5 min
COc1cc2[nH+]c(N3CCN(C(=O)C4COc5ccccc5O4)CC3)nc(N)c2cc1OC (stereo unspecified) [Doxazosin]	107%	107%	92.5%	114%	108%	56.7%	15.3 min
CCN(C)C(=O)Oc1cccc(C(C)[NH+](C)C)c1 (stereo unspecified) [Rivastigmin]	102%	105%	90.4%	94.7%	90.6%	98.8%	12.2 min
N#Cc1c[nH]cc1-c1cccc2c1OC(F)(F)O2 [Fludioxonil]	116%	108%	101%	108%	105%	77%	19.5 min
O=C1NCCN1Cc1ccc(Cl)nc1 [Imidacloprid-urea]	108%	104%	117%	108%	103%	94.9%	13.2 min
C=CS(=O)(=O)[O-] [Vinylsulfonic-acid]	103%	108%	1.5%	–	–	–	3.84 min
COc1cccc2c1C(=O)c1c(O)c3c(c(O)c1C2=O)CC(O)(C(O)CO)CC3OC1CC([NH3+])C(O)C(C)O1 (stereo unspecified) [Doxorubicinol]	60.8%	65.4%	70.4%	75.4%	73.7%	79.4%	15.2 min
[NH3+]CC1(CC(=O)[O-])CCCCC1 [Gabapentin]	99.5%	98.3%	20.3%	–	–	–	10.4 min
Nc1nc(N)[nH+]c(NC2CC2)n1 [Cyromazin]	101%	104%	83.7%	–	88.1%	91.5%	7.27 min
